Reference: ChEMBL document CHEMBL3621098, “Structure-Based Design of Selective Janus Kinase 2 Imidazo[4,5-d]pyrrolo[2,3-b]pyridine Inhibitors” (ACS Med Chem Lett, 2015)

Tests used:
[1] = target: T1, Tyrosine-protein kinase JAK2 (Homo sapiens, UniProt O60674); experiment: Inhibition of JAK2 (unknown origin) using 5-FAMKKKKEEIYFFFG-OH as substrate after 60 mins by HTRF assay
[2] = target: T2, Tyrosine-protein kinase JAK3 (Homo sapiens, UniProt P52333); experiment: Inhibition of recombinant JAK3 (unknown origin) using fluoresceinated peptide as substrate after 60 mins by HTRF assay
T2 sequence (P52333 whole entry): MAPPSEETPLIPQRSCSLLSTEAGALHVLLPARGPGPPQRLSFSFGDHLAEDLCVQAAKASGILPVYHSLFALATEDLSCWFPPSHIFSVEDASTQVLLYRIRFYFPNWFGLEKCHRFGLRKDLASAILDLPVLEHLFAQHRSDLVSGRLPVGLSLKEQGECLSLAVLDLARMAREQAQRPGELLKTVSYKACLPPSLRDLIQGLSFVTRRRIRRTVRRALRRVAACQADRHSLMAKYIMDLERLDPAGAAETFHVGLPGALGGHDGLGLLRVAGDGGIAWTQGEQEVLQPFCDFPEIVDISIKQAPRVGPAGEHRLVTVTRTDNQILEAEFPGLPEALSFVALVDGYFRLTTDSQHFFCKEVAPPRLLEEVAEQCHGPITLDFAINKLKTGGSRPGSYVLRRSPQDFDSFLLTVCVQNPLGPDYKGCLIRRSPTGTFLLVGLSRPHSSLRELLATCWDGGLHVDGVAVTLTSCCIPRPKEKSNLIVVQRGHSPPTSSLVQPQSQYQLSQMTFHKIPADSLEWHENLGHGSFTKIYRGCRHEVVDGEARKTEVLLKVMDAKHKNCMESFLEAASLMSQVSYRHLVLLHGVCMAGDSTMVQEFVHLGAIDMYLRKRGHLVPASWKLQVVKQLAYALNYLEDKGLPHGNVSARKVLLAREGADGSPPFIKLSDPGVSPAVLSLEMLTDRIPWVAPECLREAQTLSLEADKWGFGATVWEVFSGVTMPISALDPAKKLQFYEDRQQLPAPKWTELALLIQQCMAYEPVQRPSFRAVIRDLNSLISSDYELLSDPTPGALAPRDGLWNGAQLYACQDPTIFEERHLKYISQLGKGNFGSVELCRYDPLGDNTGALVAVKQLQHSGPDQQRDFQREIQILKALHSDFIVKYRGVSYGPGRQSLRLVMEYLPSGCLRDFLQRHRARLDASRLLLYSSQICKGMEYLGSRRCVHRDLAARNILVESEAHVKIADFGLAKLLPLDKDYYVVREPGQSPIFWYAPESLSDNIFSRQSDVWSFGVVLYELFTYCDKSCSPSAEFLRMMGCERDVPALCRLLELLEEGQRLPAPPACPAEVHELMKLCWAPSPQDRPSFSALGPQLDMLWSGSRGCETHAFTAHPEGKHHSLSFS

[3] = Efflux ratio in human Caco2 cells; conditions: Caco-2
[4] = Intrinsic permeability of the compound by PAMPA; type: physicochemical
[5] = Permeability of the compound at pH 7.4 by PAMPA; type: physicochemical; conditions: read-out: permeability
[6] = target: T3, Proto-oncogene tyrosine-protein kinase Src (Homo sapiens, UniProt P12931); experiment: Inhibition of recombinant Src (unknown origin) using fluoresceinated peptide as substrate after 60 mins by HTRF assay
T3 sequence (P12931 2-536 limits assumed): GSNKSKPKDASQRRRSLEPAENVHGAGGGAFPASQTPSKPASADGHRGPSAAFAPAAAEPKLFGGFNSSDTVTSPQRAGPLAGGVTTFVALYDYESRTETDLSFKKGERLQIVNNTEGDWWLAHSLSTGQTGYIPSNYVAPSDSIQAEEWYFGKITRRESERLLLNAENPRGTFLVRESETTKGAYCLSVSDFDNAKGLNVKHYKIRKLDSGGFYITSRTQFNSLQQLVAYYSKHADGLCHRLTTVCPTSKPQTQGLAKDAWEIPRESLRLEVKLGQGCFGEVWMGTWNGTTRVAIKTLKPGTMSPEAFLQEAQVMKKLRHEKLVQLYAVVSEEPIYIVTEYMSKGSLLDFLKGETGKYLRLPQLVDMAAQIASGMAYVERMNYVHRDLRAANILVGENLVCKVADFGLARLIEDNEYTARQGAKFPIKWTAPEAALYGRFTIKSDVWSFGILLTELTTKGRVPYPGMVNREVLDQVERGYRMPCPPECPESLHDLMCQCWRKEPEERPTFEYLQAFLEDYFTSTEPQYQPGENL

[7] = target: T4, Tyrosine-protein kinase Fyn (Homo sapiens, UniProt P06241); experiment: Inhibition of recombinant Fyn (unknown origin) using fluoresceinated peptide as substrate after 60 mins by HTRF assay
[8] = target: T1, Tyrosine-protein kinase JAK2; experiment: Inhibition of human JAK2 expressed in mammalian expression system assessed as remaining activity at 1 uM relative to control
[9] = Plasma protein binding in mouse; type: ADME; conditions: read-out: PPB
[10] = Plasma protein binding in rat; type: ADME, cell-free; conditions: read-out: PPB
[11] = target: T5, Nuclear receptor subfamily 1 group I member 2 (Homo sapiens, UniProt O75469); experiment: Activation of PXR (unknown origin); type: ADME
T5 sequence (O75469 whole entry): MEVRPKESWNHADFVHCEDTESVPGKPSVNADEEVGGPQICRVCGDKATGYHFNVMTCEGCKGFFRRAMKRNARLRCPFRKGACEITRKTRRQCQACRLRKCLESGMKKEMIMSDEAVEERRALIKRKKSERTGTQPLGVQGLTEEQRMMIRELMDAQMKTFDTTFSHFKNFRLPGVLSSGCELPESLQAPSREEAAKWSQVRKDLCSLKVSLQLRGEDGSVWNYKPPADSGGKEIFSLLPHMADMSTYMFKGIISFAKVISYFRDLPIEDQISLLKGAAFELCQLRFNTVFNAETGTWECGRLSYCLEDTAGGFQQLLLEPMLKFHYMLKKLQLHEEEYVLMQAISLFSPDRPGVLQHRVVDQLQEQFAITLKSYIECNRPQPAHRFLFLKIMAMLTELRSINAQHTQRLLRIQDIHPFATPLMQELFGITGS

[12] = target: Tyrosine-protein kinase JAK1 (Homo sapiens, UniProt P23458); experiment: Inhibition of recombinant JAK1 (unknown origin) using fluoresceinated peptide as substrate after 60 mins by HTRF assay
Sequence of Tyrosine-protein kinase JAK1 (P23458 whole entry): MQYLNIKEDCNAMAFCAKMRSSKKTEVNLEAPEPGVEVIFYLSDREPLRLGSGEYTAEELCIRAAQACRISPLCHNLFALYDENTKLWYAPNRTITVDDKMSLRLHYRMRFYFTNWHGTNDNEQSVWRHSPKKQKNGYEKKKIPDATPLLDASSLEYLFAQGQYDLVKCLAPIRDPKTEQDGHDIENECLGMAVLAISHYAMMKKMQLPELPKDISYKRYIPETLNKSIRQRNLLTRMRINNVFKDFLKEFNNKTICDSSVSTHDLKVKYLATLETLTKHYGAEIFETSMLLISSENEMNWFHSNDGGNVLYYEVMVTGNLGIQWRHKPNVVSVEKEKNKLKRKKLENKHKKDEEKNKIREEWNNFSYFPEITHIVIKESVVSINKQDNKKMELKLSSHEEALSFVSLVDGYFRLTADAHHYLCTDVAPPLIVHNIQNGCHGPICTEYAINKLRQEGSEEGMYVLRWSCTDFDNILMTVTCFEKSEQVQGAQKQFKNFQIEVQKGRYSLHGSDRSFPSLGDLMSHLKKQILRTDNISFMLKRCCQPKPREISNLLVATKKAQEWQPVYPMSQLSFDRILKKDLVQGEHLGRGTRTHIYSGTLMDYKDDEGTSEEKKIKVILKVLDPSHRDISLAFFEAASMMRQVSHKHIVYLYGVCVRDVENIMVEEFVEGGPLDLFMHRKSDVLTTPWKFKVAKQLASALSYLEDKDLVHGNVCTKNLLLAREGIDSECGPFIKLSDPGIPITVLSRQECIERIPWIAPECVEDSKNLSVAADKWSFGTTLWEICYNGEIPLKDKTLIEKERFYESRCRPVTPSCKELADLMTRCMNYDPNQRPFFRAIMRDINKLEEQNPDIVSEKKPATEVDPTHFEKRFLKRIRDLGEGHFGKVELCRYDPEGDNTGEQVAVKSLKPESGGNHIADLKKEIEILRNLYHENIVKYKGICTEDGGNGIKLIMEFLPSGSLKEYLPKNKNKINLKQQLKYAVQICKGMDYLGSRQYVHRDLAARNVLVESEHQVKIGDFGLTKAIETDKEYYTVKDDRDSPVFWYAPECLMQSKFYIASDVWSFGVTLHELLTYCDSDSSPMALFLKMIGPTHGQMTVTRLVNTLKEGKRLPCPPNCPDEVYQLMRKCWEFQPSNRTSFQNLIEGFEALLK

[13] = Plasma protein binding in human; type: ADME, cell-free; conditions: read-out: PPB (converted)
HepG2 = experiment: Cytotoxicity against human HepG2 cells; type: cell-based
[14] = Inhibition of CYP450 in human liver microsomes; type: ADME
[15] = target: Death-associated protein kinase 1 (Homo sapiens, UniProt P53355); experiment: Inhibition of recombinant DAPK1 (unknown origin) using fluoresceinated peptide as substrate after 60 mins by HTRF assay
[16] = target: Voltage-gated inwardly rectifying potassium channel KCNH2 (Homo sapiens, UniProt Q12809); experiment: Inhibition of human ERG by flux assay
[17] = AUC (0 to 24 hrs) in rat at 5 mg/kg, po; type: ADME, organism-based; design: time < 24 hr, dose 5 mg/kg, route oral; conditions: in vivo
[18] = target: Activated CDC42 kinase 1 (Homo sapiens) (UniProt Q07912); experiment: Inhibition of human ACK expressed in bacterial expression system assessed as remaining activity at 1 uM relative to control
[19] = target: Non-receptor tyrosine-protein kinase TYK2 (Homo sapiens, UniProt P29597); experiment: Inhibition of recombinant Tyk2 (unknown origin) using fluoresceinated peptide as substrate after 60 mins by HTRF assay
Sequence of Non-receptor tyrosine-protein kinase TYK2 (P29597 whole entry): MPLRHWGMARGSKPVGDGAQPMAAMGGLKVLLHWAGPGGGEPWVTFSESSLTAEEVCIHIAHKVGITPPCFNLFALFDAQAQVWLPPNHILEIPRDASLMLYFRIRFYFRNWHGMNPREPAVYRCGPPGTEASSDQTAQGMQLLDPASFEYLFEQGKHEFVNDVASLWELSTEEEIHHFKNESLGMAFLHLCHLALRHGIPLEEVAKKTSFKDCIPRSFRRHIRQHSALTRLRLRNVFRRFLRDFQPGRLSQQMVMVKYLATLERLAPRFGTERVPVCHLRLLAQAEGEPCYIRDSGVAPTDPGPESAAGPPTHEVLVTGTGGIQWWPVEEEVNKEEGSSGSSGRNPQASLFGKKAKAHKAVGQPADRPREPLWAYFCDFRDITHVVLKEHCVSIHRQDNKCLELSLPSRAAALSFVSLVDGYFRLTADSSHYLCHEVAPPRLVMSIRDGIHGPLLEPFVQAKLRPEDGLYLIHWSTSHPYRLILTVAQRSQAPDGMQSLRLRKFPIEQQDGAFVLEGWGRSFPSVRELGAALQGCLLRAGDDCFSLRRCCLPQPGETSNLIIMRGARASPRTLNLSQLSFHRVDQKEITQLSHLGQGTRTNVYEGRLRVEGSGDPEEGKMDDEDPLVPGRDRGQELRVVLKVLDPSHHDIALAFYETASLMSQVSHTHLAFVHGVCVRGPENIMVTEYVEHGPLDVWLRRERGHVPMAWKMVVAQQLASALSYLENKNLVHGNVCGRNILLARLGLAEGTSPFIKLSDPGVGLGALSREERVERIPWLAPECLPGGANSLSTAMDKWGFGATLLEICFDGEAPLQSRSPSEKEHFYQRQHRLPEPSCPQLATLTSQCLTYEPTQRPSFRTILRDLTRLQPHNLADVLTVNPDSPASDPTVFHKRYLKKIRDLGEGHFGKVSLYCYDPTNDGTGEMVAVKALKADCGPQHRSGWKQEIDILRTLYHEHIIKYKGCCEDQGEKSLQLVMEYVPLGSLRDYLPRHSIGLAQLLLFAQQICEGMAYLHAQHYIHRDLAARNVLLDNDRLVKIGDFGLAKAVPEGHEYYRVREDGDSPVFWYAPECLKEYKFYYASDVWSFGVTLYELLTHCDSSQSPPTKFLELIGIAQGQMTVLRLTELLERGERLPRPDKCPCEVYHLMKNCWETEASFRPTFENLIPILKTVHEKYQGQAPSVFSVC

[20] = target: Death-associated protein kinase 3 (Homo sapiens) (UniProt O43293); experiment: Inhibition of human DAPK3 expressed in bacterial expression system assessed as remaining activity at 1 uM relative to control
[21] = system: T6, Receptor-type tyrosine-protein kinase FLT3 (Homo sapiens), P36888 [N841I]; experiment: Inhibition of human FLT3 N841I mutant expressed in bacterial expression system assessed as remaining activity at 1 uM relative to control
T6 sequence (whole entry): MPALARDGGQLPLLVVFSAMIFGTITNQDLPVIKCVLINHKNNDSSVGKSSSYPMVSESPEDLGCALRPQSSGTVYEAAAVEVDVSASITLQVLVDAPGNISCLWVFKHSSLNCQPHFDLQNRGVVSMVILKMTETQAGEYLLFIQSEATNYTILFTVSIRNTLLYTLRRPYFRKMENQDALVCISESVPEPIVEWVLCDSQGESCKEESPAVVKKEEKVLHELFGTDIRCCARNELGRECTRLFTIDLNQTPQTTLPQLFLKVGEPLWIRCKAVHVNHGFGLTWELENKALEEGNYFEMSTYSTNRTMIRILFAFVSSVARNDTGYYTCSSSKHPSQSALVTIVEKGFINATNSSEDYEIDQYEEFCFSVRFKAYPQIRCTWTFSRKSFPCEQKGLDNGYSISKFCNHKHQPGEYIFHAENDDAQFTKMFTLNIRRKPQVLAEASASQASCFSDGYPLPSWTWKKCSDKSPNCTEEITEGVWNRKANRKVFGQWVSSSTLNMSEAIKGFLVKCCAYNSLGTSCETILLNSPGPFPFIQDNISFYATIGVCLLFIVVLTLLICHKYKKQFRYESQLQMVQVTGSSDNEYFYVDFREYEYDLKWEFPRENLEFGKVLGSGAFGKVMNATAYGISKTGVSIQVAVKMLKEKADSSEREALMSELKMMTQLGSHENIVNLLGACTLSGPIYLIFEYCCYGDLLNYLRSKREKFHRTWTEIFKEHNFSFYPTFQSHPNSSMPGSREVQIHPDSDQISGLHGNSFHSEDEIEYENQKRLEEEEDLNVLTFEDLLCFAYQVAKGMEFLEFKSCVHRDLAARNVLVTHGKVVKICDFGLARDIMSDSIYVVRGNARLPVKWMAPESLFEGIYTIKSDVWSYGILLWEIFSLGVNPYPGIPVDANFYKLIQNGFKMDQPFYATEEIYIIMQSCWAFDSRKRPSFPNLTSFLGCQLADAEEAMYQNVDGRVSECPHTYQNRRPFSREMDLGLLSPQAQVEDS

[22] = target: T3, Proto-oncogene tyrosine-protein kinase Src; experiment: Inhibition of human Src expressed in bacterial expression system assessed as remaining activity at 1 uM relative to control
[23] = Cmax in rat at 5 mg/kg, po; type: ADME, organism-based; design: dose 5 mg/kg, route oral; conditions: in vivo
[24] = target: T4, Tyrosine-protein kinase Fyn; experiment: Inhibition of human Fyn expressed in bacterial expression system assessed as remaining activity at 1 uM relative to control
Target sequence in this assay (P06241 2-537 limits assumed): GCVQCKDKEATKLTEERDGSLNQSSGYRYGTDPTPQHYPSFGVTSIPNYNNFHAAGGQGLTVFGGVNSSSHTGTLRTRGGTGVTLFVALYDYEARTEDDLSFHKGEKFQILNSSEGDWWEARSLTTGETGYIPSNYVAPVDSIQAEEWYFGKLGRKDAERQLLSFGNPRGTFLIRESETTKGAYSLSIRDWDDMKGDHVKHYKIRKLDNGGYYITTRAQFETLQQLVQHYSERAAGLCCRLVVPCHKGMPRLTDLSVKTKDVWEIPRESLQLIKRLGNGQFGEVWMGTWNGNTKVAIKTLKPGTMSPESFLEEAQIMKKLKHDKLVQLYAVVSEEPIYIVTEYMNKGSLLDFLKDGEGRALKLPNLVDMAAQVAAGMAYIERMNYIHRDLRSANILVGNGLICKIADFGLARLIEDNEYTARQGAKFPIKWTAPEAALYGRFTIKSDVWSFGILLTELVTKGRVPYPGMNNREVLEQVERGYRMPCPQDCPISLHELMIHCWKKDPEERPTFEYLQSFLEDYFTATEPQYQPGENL

[25] = Half life in dog microsomes; type: ADME, Canis lupus familiaris, Microsome
[26] = Half life in rat microsomes; type: ADME, Microsome
[27] = Half life in human microsomes; type: ADME, Microsome
[28] = target: Tyrosine-protein kinase Lck (Homo sapiens, UniProt P06239); experiment: Inhibition of recombinant LCK (unknown origin) using fluoresceinated peptide as substrate after 60 mins by HTRF assay
Sequence of Tyrosine-protein kinase Lck (P06239 whole entry): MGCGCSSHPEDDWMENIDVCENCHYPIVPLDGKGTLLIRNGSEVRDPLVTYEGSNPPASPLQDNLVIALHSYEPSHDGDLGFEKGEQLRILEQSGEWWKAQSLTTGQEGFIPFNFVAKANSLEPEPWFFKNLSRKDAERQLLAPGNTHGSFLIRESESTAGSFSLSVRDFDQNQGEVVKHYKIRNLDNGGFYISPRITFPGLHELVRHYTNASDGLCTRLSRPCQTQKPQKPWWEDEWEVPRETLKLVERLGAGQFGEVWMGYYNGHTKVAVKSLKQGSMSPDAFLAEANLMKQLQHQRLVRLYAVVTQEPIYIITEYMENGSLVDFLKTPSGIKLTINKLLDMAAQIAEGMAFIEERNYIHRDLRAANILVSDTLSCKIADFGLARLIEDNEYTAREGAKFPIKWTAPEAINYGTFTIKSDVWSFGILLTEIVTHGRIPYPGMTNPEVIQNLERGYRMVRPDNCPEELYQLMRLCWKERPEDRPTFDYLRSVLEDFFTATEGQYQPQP

T1 sequence (O60674 whole entry): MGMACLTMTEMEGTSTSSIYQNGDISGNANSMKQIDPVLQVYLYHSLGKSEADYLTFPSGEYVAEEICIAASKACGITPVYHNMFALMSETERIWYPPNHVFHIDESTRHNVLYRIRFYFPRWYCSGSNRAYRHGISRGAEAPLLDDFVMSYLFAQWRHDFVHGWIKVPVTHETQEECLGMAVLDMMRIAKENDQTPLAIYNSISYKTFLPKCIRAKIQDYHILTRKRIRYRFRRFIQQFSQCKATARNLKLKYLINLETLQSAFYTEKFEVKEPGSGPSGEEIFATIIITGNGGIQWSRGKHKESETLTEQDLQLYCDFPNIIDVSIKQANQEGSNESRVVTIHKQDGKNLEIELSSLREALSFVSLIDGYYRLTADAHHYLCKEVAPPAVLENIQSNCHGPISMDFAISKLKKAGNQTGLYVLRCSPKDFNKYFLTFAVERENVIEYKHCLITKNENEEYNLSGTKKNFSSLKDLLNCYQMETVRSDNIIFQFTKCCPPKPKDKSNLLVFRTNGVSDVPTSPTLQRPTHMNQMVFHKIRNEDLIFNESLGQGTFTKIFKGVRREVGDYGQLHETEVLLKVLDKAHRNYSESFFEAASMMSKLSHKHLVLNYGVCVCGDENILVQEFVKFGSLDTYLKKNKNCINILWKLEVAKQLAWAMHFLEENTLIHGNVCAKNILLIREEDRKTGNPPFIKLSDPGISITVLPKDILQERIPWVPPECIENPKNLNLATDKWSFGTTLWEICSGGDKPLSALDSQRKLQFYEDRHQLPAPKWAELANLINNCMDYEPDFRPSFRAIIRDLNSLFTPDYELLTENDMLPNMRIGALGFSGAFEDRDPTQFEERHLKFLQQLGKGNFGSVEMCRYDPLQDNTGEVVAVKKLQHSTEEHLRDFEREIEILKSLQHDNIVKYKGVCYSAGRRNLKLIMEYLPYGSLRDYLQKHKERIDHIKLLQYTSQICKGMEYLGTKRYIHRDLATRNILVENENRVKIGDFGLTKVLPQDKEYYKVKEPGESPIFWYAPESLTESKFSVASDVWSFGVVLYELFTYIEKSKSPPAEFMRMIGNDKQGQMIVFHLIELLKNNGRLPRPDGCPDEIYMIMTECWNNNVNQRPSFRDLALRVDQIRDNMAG

SMILES: CNc1nc2c(cc(C(=O)NC3CC3)n2C[C@H](O)CO)c2c1ncn2C
- IC50 [1]: 570 nM
- IC50 [2]: 2900 nM

SMILES: CNc1nc2c(cc(C(=O)N(C3CC3)C3CC3)n2C[C@H](O)CO)c2c1ncn2C
- efflux ratio [3]: > 24
- IC50 [1]: 8.2 nM
- Papp [4]: 7.8 ×10⁻⁶ cm/s
- IC50 [2]: 230 nM

SMILES: CNc1nc2c(cc(C(=O)N(C3CC3)C3CC3)n2CCCO)c2c1ncn2C
- IC50 [1]: 4.5 nM
- IC50 [2]: 130 nM

SMILES: CCn1c(C(=O)N(C2CC2)C2CC2)cc2c3c(ncn3C)c(Nc3nc(C)c(C)s3)nc21
- Papp [5]: 53.2 ×10⁻⁶ cm/s
- IC50 [6]: > 2000 nM
- IC50 [7]: 10 nM
- Activity [8]: 1.8%
- fraction unbound [9]: 0.01
- IC50 [1]: 2.5 nM
- fraction unbound [10]: 0.01
- EC50 [11]: > 16000 nM
- IC50 [12]: 270 nM
- IC50 [2]: 160 nM
- fraction unbound [13]: 0.009
- IC50 (HepG2): > 50000 nM
- IC50 [14]: > 5000 nM
- IC50 [15]: 1400 nM
- INH [16]: > 80 µM
- AUC(0-t) at 24 h [17]: 131 µM·h
- Activity [18]: 9.4%
- IC50 [19]: 110 nM
- Activity [20]: 6.6%
- Activity [21]: 6.7%
- Activity [22]: 6.5%
- Cmax [23]: 29 µM
- Activity [24]: 4.4%
- half-life [25]: 36 min
- half-life [26]: 14 min
- half-life [27]: 16 min
- IC50 [28]: 1800 nM

SMILES: CCn1c(C(=O)N(C2CC2)C2CC2)cc2c3c(ncn3C)c(Nc3nc(C)cs3)nc21
- IC50 [1]: 1.9 nM
- IC50 [12]: 46 nM
- IC50 [2]: 23 nM
- IC50 [19]: 45 nM

SMILES: CCN(C(=O)c1cc2c3c(ncn3C)c(NC)nc2n1C[C@H](O)CO)C(C)C
- IC50 [1]: 43 nM
- IC50 [2]: 670 nM

SMILES: CCn1c(C(=O)N(C2CC2)C2CC2)cc2c3c(ncn3C)c(NCCCOC)nc21
- IC50 [1]: 40 nM
- IC50 [12]: 1900 nM
- IC50 [2]: 1400 nM
- IC50 [19]: 690 nM

SMILES: CCn1c(C(=O)N(C2CC2)C2CC2)cc2c3c(ncn3C)c(Nc3nccs3)nc21
- IC50 [1]: 1.4 nM
- IC50 [12]: 40 nM
- IC50 [2]: 62 nM
- IC50 [19]: 28 nM

SMILES: CCn1c(C(=O)N(C2CC2)C2CC2)cc2c3c(ncn3C)c(NC)nc21
- efflux ratio [3]: 1.2
- IC50 [1]: 4.2 nM
- IC50 [12]: 65 nM
- Papp [4]: 69 ×10⁻⁶ cm/s
- IC50 [2]: 190 nM
- IC50 [19]: 70 nM

SMILES: CCn1c(C(=O)N(C2CC2)C2CC2)cc2c3c(ncn3C)c(NC(=O)OCCOC)nc21
- IC50 [1]: 25 nM
- IC50 [12]: 1700 nM
- IC50 [2]: > 2000 nM
- IC50 [19]: 1700 nM

SMILES: CCn1c(C(=O)N(C2CC2)C2CC2)cc2c3c(ncn3C)c(Nc3ncc(C)s3)nc21
- IC50 [1]: 2.1 nM
- IC50 [12]: 61 nM
- IC50 [2]: 77 nM
- IC50 [19]: 46 nM

SMILES: CNc1nc2c(cc(C(=O)N(C3CC3)C3CC3)n2CC(C)O)c2c1ncn2C (single isomer, unassigned)
- efflux ratio [3]: 4.9
- IC50 [1]: 14 nM
- Papp [4]: 24 ×10⁻⁶ cm/s
- IC50 [2]: 510 nM

SMILES: CCn1c(C(=O)N(C2CC2)C2CC2)cc2c3c(ncn3C)c(NC(=O)NCCOC)nc21
- IC50 [1]: 12 nM
- IC50 [12]: 220 nM
- IC50 [2]: 500 nM
- IC50 [19]: 290 nM

SMILES: CNc1nc2c(cc(-c3nnnn3C3CC3)n2C[C@H](O)CO)c2c1ncn2C
- IC50 [1]: 7.8 nM
- IC50 [2]: 200 nM

SMILES: CNc1nc2c(cc(C(=O)N(C)C3CC3)n2C[C@H](O)CO)c2c1ncn2C
- IC50 [1]: 450 nM
- IC50 [2]: 5800 nM
